Series [1] in a line: Chemical and polymorphic stability under stability testing conditions. Format: physicochemical. As to conditions: 25±2° C. and 75% RH, inert atmosphere.
The nature of series [2]: Polymorphic stability on storage, analysed by XRPD. Format: physicochemical. The note with it: stored at 25° C.±2° C., about 70% RH (result sentence: about 76% RH), 6 weeks.
Series [3] can be described thus: Comparative solubility profile of crystalline forms in diluents.
Setting [4] is: diluent: Solvent Methylene chloride.

Converted amounts (≈) assume the structure as drawn.

A word on the Solubility: it is the dissolved amount per volume that the medium holds.

Turning to `CCOC(=O)Nc1ccc(NCc2ccc(F)cc2)cc1N` [Form-I, N-[2-amino-4-(4-fluorobenzylamino)-phenyl]carbamic acid ethyl ester], the “Chemical and polymorphic stability” value in series [1] is “substantially stable chemically and polymorphically”. In series [2], the “Polymorphic stability (XRPD)” value is recorded as “polymorphically stable”. In addition, the “Solubility profile compared to known polymorphs (crystalline modifications A, B, and C)” value in series [3] is “better solubility profile”. Besides, the Solubility in series [3] (diluent: Solvent Acetone) was 290 mg/mL (≈ 956 mM); in series [3] (diluent: Solvent Alcohol (96%)), 25 mg/mL (≈ 82.4 mM); in series [3] (diluent: Solvent DMSO), 700 mg/mL (≈ 2310 mM); in series [3] (setting [4]), 40 mg/mL (≈ 132 mM); in series [3] (diluent: Water), <0.1 mg/mL; in series [3] (diluent: pH Buffer 1.2 pH), 10 mg/mL (≈ 33 mM). For the same compound, the Solubility in series [3] (diluent: pH Buffer 4.5 pH) and in series [3] (diluent: pH Buffer 8.5 pH) was <0.1 mg/mL in each case.
Consider `CCOC(=O)Nc1ccc(NCc2ccc(F)cc2)cc1N` [Form-II, N-[2-amino-4-(4-fluorobenzylamino)-phenyl]carbamic acid ethyl ester], for which the “Chemical and polymorphic stability” value in series [1] is “substantially stable chemically and polymorphically”. For the same compound, the “Polymorphic stability (XRPD)” value in series [2] was “polymorphically stable”. The “Solubility profile compared to known polymorphs (crystalline modifications A, B, and C)” value in series [3] is “better solubility profile”. The Solubility in series [3] (diluent: Solvent Acetone) is recorded as 250 mg/mL (≈ 824 mM); in series [3] (diluent: Solvent Alcohol (96%)), 24 mg/mL (≈ 79.1 mM); in series [3] (diluent: Solvent DMSO) it was 700 mg/mL (≈ 2310 mM); in series [3] (setting [4]), 70 mg/mL (≈ 231 mM); in series [3] (diluent: Water), <0.1 mg/mL; in series [3] (diluent: pH Buffer 1.2 pH) it was 10 mg/mL (≈ 33 mM). Besides, the Solubility in series [3] (diluent: pH Buffer 4.5 pH) and in series [3] (diluent: pH Buffer 8.5 pH) was <0.1 mg/mL throughout.
As to `CCOC(=O)Nc1ccc(NCc2ccc(F)cc2)cc1N` [Modification-A, N-[2-amino-4-(4-fluorobenzylamino)-phenyl]carbamic acid ethyl ester], the Solubility in series [3] (diluent: Solvent Acetone) is 280 mg/mL (≈ 923 mM); in series [3] (diluent: Solvent Alcohol (96%)), 23 mg/mL (≈ 75.8 mM); in series [3] (diluent: Solvent DMSO), 800 mg/mL (≈ 2640 mM); in series [3] (setting [4]) it was 50 mg/mL (≈ 165 mM); in series [3] (diluent: Water), <0.1 mg/mL; in series [3] (diluent: pH Buffer 1.2 pH), 13 mg/mL (≈ 42.9 mM). The Solubility in series [3] (diluent: pH Buffer 4.5 pH) and in series [3] (diluent: pH Buffer 8.5 pH) was <0.1 mg/mL each time.
Turning to `CCOC(=O)Nc1ccc(NCc2ccc(F)cc2)cc1N` [Modification-B, N-[2-amino-4-(4-fluorobenzylamino)-phenyl]carbamic acid ethyl ester], the Solubility is on record as 280 mg/mL (≈ 923 mM) in series [3] (diluent: Solvent Acetone); 22 mg/mL (≈ 72.5 mM) in series [3] (diluent: Solvent Alcohol (96%)); 700 mg/mL (≈ 2310 mM) in series [3] (diluent: Solvent DMSO); 80 mg/mL (≈ 264 mM) in series [3] (setting [4]); <0.1 mg/mL in series [3] (diluent: Water); 10 mg/mL (≈ 33 mM) in series [3] (diluent: pH Buffer 1.2 pH). Further, the Solubility in series [3] (diluent: pH Buffer 4.5 pH) and in series [3] (diluent: pH Buffer 8.5 pH) was <0.1 mg/mL each time.
For `CCOC(=O)Nc1ccc(NCc2ccc(F)cc2)cc1N` [Modification-C, N-[2-amino-4-(4-fluorobenzylamino)-phenyl]carbamic acid ethyl ester], the Solubility in series [3] (DMSO, organic solvent or mixture, Solubility, diluent: Solvent DMSO) is 700 mg/mL (≈ 2310 mM); in series [3] (acetone, organic solvent or mixture, Solubility, diluent: Solvent Acetone) it was 310 mg/mL (≈ 1020 mM); in series [3] (alcohol (96%), organic solvent or mixture, Solubility, diluent: Solvent Alcohol (96%)) it was 16 mg/mL (≈ 52.7 mM); in series [3] (methylene chloride, organic solvent or mixture, Solubility, diluent: Solvent Methylene chloride), 50 mg/mL (≈ 165 mM); in series [3] (pH buffer, pH 1.2, simulated gastric fluid, Solubility, diluent: pH Buffer 1.2 pH), 11 mg/mL (≈ 36.3 mM); in series [3] (pH buffer, pH 4.5, aqueous buffer, Solubility, diluent: pH Buffer 4.5 pH), < 0.1 mg/mL. In addition, the Solubility in series [3] (pH buffer, pH 8.5, aqueous buffer, Solubility, diluent: pH Buffer 8.5 pH) was < 0.1 mg/mL; in series [3] (water, Solubility, diluent: Water), < 0.1 mg/mL.

(Values after patent publication US20140350285A1, “NOVEL POLYMORPHS OF N-[2-AMINO-4-(4-FLUOROBENZYLAMINO)-PHENYL] CARBAMIC ACID ETHYL ESTER AND PROCESSES THEREOF” (SYMED LABS LIMITED, priority 2012, published 2014).)
